According to ChEMBL document CHEMBL1201862, “PubChem BioAssay data set” (2004):
Calls of active or inactive are those of the source.

What was measured:
[1] = target: T1, High affinity choline transporter 1 (Homo sapiens, UniProt Q9GZV3); test: human choline transporter blockers, potency – cell-based, 5-point CRC, membrane potential dye, dose response (AID 504840); format: functional
T1 sequence (Q9GZV3 whole entry): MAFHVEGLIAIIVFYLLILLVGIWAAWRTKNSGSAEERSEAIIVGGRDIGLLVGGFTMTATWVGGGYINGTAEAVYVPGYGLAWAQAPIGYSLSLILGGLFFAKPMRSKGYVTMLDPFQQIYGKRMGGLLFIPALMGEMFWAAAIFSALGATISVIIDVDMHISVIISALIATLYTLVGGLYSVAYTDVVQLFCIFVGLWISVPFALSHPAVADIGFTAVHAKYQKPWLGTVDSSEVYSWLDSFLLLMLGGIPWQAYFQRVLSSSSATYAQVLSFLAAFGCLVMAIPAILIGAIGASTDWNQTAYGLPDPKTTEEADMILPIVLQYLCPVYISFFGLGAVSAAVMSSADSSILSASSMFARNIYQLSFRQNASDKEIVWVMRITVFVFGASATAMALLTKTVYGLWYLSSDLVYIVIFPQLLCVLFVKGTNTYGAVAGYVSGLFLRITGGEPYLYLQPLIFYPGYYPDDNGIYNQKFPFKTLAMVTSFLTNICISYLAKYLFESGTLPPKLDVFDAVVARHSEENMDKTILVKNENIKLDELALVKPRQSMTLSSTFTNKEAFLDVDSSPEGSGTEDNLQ

HEK293 = test: EBV LMP1 TES2 canonical NF-kB signalling blockers – cell-based, HEK293, luciferase, cherry-pick, dose response (AID 588343); format: functional; conditions: Homo sapiens
INS1 = test: INS-1E survival protection against cytokine death – cell-based, luminescence, retest, dose response (AID 449756); format: functional; conditions: Rattus norvegicus;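 further: cell death triggered by IL-1 beta plus TNF-alpha plus IFN-gamma mixture; protective hits raise ATP signal compared with cytokine alone wells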
[2] = target: Dual specificity tyrosine-phosphorylation-regulated kinase 1A (Rattus norvegicus, UniProt Q63470); format: biochemical, Homo sapiens
HeLa = test: ATP-based viability loss in HeLa cells – cell-based, CellTiter-Glo luminescence, cherry-pick samples, cytotoxicity control for MITF activator project, dose response (AID 540259); format: functional; conditions: Homo sapiens
H9c2 = test: cells; format: functional, cell-based; conditions: Rattus norvegicus, H9c2, Myocardium;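 further: confirmatory concentration-response retest of ultra-high-throughput screening hits for modulation of myocardial damage; cell death induced by hydrogen peroxide oxidative stress; compound pretreatment for 60 min then peroxide exposure for 2 h; potency is for protecting the cells against peroxide damage rather than for killing them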
[3] = NIH-3T3 fibroblast cytotoxicity, dose response, cytotoxicity control, cell-based, fluorescence, Alamar Blue, secondary assay (AID 2327); format: functional;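 further: NIH-3T3 mouse fibroblasts cultured with fluconazole at 8 µg/mL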
[4] = fluconazole-exposed Candida albicans growth modulators – fluorescence, retest, confirmation (AID 2467); format: functional, cell-based
[5] = target: Glucose-6-phosphate 1-dehydrogenase (Homo sapiens, UniProt P11413); test: inhibition of Homo sapiens G6PD, dose series – biochemical, fluorescence, selectivity assay for P. falciparum G6PD inhibitor project, dose response (AID 504792); format: functional
Glucose-6-phosphate 1-dehydrogenase, sequence (P11413 whole entry): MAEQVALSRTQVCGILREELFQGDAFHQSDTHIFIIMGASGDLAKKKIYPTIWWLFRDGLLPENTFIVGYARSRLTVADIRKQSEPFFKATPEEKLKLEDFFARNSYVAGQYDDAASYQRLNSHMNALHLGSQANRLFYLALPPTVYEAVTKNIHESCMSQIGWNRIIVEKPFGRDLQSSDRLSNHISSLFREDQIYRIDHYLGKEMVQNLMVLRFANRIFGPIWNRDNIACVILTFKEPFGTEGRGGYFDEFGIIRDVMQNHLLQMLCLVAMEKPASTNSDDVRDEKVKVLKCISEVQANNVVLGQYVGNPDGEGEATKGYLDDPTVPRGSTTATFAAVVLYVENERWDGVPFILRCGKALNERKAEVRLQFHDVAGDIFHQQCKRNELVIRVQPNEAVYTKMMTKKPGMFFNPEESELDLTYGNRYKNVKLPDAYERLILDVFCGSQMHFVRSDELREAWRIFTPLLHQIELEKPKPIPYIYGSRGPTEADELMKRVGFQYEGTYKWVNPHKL

Aurora kinase B = Aurora kinase B (Homo sapiens, UniProt Q96GD4); format: functional
Aurora kinase B, sequence (Q96GD4 whole entry): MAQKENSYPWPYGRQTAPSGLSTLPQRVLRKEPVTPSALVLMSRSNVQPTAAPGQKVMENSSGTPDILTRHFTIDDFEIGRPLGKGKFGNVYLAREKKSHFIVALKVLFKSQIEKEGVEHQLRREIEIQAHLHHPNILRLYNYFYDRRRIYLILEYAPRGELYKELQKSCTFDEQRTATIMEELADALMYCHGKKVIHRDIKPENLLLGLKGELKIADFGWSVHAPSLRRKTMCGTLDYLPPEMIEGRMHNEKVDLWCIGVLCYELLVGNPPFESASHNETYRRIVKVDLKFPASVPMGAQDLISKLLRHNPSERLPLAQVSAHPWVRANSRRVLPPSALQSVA

[6] = target: Vascular endothelial growth factor receptor 2 (Homo sapiens, UniProt P35968); format: functional
Vascular endothelial growth factor receptor 2, sequence (P35968 whole entry): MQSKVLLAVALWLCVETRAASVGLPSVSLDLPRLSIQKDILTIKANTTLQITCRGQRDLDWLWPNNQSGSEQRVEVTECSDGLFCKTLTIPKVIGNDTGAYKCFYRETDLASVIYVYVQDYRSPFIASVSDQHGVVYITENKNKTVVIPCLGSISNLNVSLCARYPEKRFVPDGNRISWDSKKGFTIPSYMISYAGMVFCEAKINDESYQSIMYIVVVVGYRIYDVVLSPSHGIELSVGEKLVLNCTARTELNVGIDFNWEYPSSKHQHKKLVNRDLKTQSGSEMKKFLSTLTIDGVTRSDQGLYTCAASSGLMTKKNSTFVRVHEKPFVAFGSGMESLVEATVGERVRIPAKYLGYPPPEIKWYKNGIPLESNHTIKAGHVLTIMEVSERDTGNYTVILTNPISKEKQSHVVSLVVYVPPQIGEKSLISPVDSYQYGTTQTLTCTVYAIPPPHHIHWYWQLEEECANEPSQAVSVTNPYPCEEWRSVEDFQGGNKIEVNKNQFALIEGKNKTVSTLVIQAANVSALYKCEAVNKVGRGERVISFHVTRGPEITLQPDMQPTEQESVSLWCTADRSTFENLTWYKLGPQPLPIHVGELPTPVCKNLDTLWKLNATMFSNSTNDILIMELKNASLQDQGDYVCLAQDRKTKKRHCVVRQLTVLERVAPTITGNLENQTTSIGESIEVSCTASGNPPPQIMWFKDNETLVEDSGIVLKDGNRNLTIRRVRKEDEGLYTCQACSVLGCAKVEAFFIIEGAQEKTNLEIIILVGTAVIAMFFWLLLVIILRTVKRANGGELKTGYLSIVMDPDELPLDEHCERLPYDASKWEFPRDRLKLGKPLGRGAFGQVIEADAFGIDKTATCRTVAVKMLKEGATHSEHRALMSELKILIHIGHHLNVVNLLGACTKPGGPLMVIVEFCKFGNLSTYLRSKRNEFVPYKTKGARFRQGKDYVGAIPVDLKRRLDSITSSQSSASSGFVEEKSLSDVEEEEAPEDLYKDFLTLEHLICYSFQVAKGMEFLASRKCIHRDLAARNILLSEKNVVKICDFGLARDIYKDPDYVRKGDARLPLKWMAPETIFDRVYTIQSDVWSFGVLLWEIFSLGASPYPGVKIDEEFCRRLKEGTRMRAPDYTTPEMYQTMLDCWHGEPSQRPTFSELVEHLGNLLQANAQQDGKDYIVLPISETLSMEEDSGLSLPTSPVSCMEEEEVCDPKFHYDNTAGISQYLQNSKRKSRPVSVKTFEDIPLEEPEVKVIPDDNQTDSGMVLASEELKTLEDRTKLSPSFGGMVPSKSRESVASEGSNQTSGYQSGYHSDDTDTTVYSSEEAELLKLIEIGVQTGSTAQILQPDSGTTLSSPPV

Aurora kinase A = target: T2, Aurora kinase A (Homo sapiens, UniProt O14965); format: functional;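 further: value from the Navigating the Kinome kinase panel profiling, panel entry STK6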
T2 sequence (O14965 whole entry): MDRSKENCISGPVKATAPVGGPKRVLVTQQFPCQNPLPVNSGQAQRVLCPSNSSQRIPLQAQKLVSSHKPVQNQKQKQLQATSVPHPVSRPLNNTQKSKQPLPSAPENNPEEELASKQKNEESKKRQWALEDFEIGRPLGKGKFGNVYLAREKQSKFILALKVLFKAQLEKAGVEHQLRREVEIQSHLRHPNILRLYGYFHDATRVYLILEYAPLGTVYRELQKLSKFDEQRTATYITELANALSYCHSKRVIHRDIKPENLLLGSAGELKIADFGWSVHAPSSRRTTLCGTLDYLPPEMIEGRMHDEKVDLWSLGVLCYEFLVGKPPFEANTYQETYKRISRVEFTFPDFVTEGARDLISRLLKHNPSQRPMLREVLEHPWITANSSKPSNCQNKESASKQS

[7] = intracellular Trypanosoma cruzi inhibitors in host cells – cell-based, plate reader, cherry-pick samples, set 3, dose response (AID 651818); format: functional;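 further: compounds incubated with infected cells for about four days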
Phospholipase A2 = Phospholipase A2 (Homo sapiens, UniProt P04054); format: functional;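 further: confirmatory dose-response counterscreen on phospholipase A2, testing hits that came from an ultra-high-throughput screen for ATG4B inhibitors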
Phospholipase A2, sequence (P04054 whole entry): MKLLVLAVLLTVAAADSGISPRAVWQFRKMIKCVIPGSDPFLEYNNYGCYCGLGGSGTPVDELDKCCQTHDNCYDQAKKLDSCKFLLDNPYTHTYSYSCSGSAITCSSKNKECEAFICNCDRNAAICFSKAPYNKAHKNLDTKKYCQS

Cysteine protease ATG4B = target: T3, Cysteine protease ATG4B (Homo sapiens, UniProt Q9Y4P1); format: functional;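 further: Fluorescence-based dose-response confirmation assay measuring inhibition of ATG4B activity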
T3 sequence (Q9Y4P1 whole entry): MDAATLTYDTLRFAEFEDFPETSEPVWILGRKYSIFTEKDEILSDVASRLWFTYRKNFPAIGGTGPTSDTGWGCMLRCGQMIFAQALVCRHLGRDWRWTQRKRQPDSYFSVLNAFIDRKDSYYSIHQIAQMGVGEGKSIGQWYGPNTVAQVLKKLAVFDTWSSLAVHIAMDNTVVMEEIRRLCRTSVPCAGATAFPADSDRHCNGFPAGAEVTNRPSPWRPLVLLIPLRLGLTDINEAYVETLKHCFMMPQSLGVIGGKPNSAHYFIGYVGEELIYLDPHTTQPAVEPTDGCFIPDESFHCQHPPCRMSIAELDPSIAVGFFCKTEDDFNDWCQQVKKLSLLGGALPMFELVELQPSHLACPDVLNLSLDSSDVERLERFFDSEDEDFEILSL

[8] = NIH3T3 cell viability loss – ATP luminescence, mouse fibroblasts, counter-screen, dose response (AID 2010); format: functional, cell-based;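 further: cells exposed to compound for about 90 hours before reading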
[9] = Trypanosoma cruzi growth suppression in host cells – NIH3T3 host cells, beta-gal luminescence, confirmation (AID 2044); format: functional, cell-based;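 further: intracellular parasites grown in NIH/3T3 mouse fibroblasts as host cells; luminescent beta-galactosidase reporter signal from transgenic T. cruzi replicating inside host cells; inhibitors lower the luminescence signal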
[10] = viability of HCT116 lacking mutant beta-catenin – cell-based, human colon tumor, dose response (AID 1045); format: functional;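 further: HCT116 colon tumor cells with beta catenin knocked out; cells exposed to compound for 60 hours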
SUMO-activating enzyme [11] = target: T4, SUMO-activating enzyme (Homo sapiens, UniProt Q9UBT2); test: blockers of SAE1/SAE2–UBC9 SUMO transfer – biochemical, HTRF, uHTS, primary screen (AID 2006); format: protein-complex assay
T4 sequence (Q9UBE0 whole entry): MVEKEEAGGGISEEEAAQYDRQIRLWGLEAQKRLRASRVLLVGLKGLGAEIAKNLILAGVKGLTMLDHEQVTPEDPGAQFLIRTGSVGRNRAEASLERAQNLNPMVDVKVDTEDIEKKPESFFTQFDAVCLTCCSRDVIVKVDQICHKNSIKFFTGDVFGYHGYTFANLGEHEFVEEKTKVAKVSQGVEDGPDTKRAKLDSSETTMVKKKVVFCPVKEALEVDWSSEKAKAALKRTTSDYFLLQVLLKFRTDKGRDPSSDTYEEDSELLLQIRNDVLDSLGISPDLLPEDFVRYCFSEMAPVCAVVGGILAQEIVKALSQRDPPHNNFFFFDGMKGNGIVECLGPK
T4 sequence (Q9UBT2 whole entry): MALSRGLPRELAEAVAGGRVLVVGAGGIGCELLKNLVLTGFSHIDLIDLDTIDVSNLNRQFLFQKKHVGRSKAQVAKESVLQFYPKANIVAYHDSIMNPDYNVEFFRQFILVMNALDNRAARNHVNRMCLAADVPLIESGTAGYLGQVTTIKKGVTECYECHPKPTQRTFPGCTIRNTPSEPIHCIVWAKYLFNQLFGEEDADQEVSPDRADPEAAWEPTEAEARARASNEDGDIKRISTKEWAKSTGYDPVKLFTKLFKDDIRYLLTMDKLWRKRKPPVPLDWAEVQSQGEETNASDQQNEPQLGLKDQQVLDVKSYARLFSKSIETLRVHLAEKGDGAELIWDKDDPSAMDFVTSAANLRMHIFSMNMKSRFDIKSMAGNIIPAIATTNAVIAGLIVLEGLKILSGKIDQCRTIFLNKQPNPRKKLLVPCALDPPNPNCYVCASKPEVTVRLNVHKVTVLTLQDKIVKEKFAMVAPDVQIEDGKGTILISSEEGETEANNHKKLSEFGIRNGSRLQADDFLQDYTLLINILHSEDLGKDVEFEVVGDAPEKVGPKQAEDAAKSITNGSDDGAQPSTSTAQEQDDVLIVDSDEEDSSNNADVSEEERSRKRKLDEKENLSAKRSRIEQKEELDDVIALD

[12] = target: T5, Calpain-2 catalytic subunit (Sus scrofa, UniProt P43367); test: m-calpain protease blockers, concentration series – biochemical, fluorogenic peptide substrate, dose response (AID 1420); format: functional
T5 sequence (P43367 whole entry): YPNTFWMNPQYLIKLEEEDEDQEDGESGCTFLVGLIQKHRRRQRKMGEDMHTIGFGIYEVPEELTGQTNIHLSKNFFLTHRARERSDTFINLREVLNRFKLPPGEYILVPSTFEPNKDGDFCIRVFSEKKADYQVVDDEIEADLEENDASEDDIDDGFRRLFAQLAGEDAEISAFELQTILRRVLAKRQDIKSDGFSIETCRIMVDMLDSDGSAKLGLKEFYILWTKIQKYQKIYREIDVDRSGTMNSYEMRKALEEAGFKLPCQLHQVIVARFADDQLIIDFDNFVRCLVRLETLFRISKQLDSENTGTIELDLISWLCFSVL

Cytochrome P450 2C19 = Cytochrome P450 2C19 (Homo sapiens, UniProt P33261); test: Cytochrome panel assay with activity outcomes. Panel member name: p450-cyp2c19 Compounds with AC50 equal or less than 10 uM are considered active; format: functional; conditions: read-out: AC50
Cytochrome P450 2C19, sequence (P33261 whole entry): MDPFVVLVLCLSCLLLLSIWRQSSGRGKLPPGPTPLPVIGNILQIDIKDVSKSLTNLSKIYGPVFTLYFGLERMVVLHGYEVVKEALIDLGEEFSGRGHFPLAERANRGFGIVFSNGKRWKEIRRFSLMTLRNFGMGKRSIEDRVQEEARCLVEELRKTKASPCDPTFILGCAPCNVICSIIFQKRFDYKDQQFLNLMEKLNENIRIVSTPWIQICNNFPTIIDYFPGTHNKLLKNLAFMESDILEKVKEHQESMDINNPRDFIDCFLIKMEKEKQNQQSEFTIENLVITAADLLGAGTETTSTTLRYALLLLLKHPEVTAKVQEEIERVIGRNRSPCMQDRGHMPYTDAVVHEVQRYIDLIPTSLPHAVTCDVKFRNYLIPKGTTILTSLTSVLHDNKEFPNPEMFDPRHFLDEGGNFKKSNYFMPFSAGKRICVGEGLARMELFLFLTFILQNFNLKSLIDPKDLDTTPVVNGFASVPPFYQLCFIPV

[13] = viability of PTEN-deleted HCT116 cells – cell-based, HCT116 PTEN knockout, dose response (AID 1047); format: functional;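 further: HCT116 colon tumor cells with PTEN knocked out; cells exposed to compound for 60 hours before readout; potency for loss of cell viability measured by luminescence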
Cytochrome P450 2C9 = Cytochrome P450 2C9 (Homo sapiens, UniProt P11712)
Cytochrome P450 2C9, sequence (P11712 whole entry): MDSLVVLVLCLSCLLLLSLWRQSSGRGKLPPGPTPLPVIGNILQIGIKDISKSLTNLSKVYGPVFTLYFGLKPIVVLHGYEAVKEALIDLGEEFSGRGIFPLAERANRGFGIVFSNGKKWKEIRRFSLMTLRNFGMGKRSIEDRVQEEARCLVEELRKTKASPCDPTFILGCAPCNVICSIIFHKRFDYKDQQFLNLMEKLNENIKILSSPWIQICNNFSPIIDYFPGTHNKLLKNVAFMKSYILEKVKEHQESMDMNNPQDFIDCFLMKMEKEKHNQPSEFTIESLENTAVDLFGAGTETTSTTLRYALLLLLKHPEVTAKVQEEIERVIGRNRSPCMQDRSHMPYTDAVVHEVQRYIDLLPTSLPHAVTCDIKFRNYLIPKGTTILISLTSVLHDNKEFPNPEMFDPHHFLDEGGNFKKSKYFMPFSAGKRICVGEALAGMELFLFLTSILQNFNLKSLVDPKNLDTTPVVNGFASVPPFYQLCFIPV

SUMO-activating enzyme [14] = target: T4, SUMO-activating enzyme; test: blockers of UBC9-mediated SUMO conjugation – biochemical, AlphaScreen, SUMOylation inhibitor project, confirmation (AID 2018); format: functional
Leucine aminopeptidase = target: T6, Leucine aminopeptidase (Plasmodium falciparum 3D7, UniProt Q8IL11); test: P. falciparum M17LAP inhibitors, primary screen, biochemical, fluorogenic H-Leu-NHMec substrate, 1536-well (AID 1619); format: functional
T6 sequence (Q8IL11 whole entry): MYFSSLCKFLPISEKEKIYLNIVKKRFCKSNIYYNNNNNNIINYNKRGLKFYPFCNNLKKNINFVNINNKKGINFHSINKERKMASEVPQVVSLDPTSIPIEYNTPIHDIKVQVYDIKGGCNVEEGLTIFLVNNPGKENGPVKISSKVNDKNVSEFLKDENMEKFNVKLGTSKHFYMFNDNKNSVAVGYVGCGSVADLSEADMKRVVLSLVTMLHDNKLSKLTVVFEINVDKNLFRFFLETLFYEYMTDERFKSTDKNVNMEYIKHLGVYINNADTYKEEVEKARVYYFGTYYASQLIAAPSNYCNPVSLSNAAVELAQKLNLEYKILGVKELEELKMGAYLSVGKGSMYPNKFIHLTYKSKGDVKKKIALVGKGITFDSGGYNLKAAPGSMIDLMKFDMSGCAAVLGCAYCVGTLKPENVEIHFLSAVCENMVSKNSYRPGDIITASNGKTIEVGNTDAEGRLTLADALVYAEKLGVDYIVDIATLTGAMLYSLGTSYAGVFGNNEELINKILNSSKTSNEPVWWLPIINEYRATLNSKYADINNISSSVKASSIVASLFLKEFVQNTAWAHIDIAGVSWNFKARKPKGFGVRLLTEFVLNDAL

O=C(C1CCCN(c2ncnc3c2nc2n3CCCCC2)C1)N1CCN(c2ccc(F)cc2)CC1 (stereo not given)
IC50 [1]: 20.9 µM (active)

Cc1ccc(C(=O)Nc2ncc3c(Cl)cccc3n2)cc1
AC50 (HEK293): 2.46 µM (active)

CCC(=O)NC(c1cc(Cl)c2cccnc2c1O)C(C)C (stereo not given)
AC50 (INS1): 1.86 µM (active) | AC50 (HEK293): 6.68 µM (active)

C[N+](C)(CCOc1ccccc1)Cc1ccccc1
AC50 [2]: 10.5 µM (active)

CC(=O)c1ccc(NC(=O)Nc2ccc3c(c2)nc(C)n3C)cc1
AC50 (HeLa): 42.9 µM (active)

CC(=O)c1ccc(N2CCN(C(=O)C3CCCN(c4ncnc5c4nc4n5CCCCC4)C3)CC2)cc1 (stereo not given)
IC50 (H9c2): > 79 µM (inactive) | IC50 [1]: 18.2 µM (active)

CC(=O)c1ccc(N2CCN(c3ccnc4cc(Cl)ccc34)CC2)cc1
EC50 [3]: > 160 µM (inactive) | EC50 [4]: 4.05 µM (active) | AC50 (HEK293): 54.4 µM (active)

CC(=O)c1ccc2c(c1)Cc1cc(C(C)=O)ccc1-2
AC50 (HeLa): 96.8 µM (active)

c1cc(-c2cc3cc4c(cc3cn2)OCO4)cs1
AC50 (HeLa): 141 µM (active)

COc1ccc2ncc(S(=O)(=O)c3ccccc3)c(N3CCC4(CC3)OCCO4)c2c1
IC50 [1]: 14.5 µM (active)

O=C(Nc1nnc(C2CC2)s1)c1ccc(Cl)nc1
IC50 [5]: > 80 µM (inactive)

CCCCN1CCN(c2ccc(-c3nc4c(C(N)=O)cccc4[nH]3)cc2)CC1
Ki (Aurora kinase B): 0.0501 µM (active) | Ki [6]: > 5.01 µM (inactive) | Ki (Aurora kinase A): 0.794 µM (active)

Nn1c(CSc2nc3ccccc3o2)nnc1CSc1nc2ccccc2o1
IC50 [5]: > 80 µM (inactive)

C[C@@H]1CN([C@H](C)CO)C(=O)c2cccc(NC(=O)Nc3ccc(C(F)(F)F)cc3)c2O[C@@H]1CN(C)C(=O)NC1CCCCC1
AC50 [7]: 5.14 µM (active)

CCCCCC(=O)Nc1ccccc1N1CCN(c2ccccc2)CC1
IC50 (Phospholipase A2): 4.38 µM (active) | IC50 (Cysteine protease ATG4B): 5.74 µM (active)

NC(=NO)c1ccccc1S(=O)(=O)Nc1ccc2c(c1)C(=NO)c1ccccc1-2
Ki (Aurora kinase B): 0.0251 µM (active) | Ki [6]: > 5.01 µM (inactive) | Ki (Aurora kinase A): 0.631 µM (active)

C[C@H]1CN([C@@H](C)CO)C(=O)c2cccc(NC(=O)c3ccncc3)c2O[C@@H]1CN(C)Cc1ccc2c(c1)OCO2
AC50 [7]: 0.277 µM (active)

NC(=O)N/N=C/c1ccc(-n2nncc2-c2ccc(Cl)cc2)cc1
IC50 [5]: > 80 µM (inactive)

Cc1ccc(S(=O)(=O)Nc2ccc3c(c2)CC(=O)N([C@H](C)CO)C[C@@H](C)[C@H](CN(C)Cc2ccc4c(c2)OCO4)O3)cc1
AC50 [7]: 4.35 µM (active)

C/C(Cn1nnc([N+](=O)[O-])n1)=N\NC(=O)c1cccc(Cl)c1
IC50 [5]: > 80 µM (inactive) | EC50 [8]: > 60 µM (not active) | EC50 [9]: 0.416 µM (active)

COc1ccc(-c2cc(-c3ccccc3)c3cc(Cl)ccc3n2)cc1
Ki (Aurora kinase B): 0.251 µM (active) | Ki (Aurora kinase A): 0.0501 µM (active)

COc1ccc(-n2c(CNc3ccc(C)cc3)nnc2SCC(=O)Nc2nc(-c3ccccc3)cs2)cc1
EC50 [10]: 2.75 µM (active) | IC50 (SUMO-activating enzyme [11]): 21.9 µM (active) | IC50 [12]: 21.4 µM (active) | AC50 (Cytochrome P450 2C19): 0.355 µM (inconclusive) | EC50 [13]: 2.49 µM (active) | AC50 (INS1): 6.07 µM (active) | AC50 (Cytochrome P450 2C9): 7.94 µM (inconclusive) | IC50 (SUMO-activating enzyme [14]): 39.7 µM (active)

COc1ccc(N2Nc3[nH]nc(N)c3N2)cc1
AC50 [2]: 3.12 µM (active) | IC50 (Leucine aminopeptidase): 10.4 µM (active)

Oc1c(Br)cc(Br)cc1/C=N/n1c(S)nnc1-c1ccccc1
IC50 (Phospholipase A2): 33.5 µM (inactive) | IC50 (Cysteine protease ATG4B): 8.08 µM (active)
